Source: patent US20170354655A1, “TLR INHIBITOR AND BRUTON'S TYROSINE KINASE INHIBITOR COMBINATIONS” (Pharmacyclics LLC, priority 2014, published 2017)

How the values were obtained:
Format in all cases: cell-based
TMD8 cells = experiment: Combined drug treatment, CellTiter-Glo cell viability assay in TMD8 cell line; conditions: for luminescent signal (CellTiter-Glo): test ODN 1 μM or chloroquine 10 μM, 3 days; for average CI value for the ibrutinib and chloroquine combination: CalcuSyn; for synergy score for the ibrutinib and chloroquine combination: Chalice Analyzer
Experimental: 200 μl of TMD8 wt cells (1.0×10^4 cells) at 5.0×10^4 cells/ml was plated into each well of a 96-well plate. The cells were grown in RPMI-10P medium.
The TLR9 antagonists used for this experiment included ODN 4084-F, ODN INH-1, ODN INH-18, and ODN TTAGGG. […] The TLR9 agonists used for this experiment included ODN 2006, ODN 2216, and ODN 2395. The TLR9 agonists were used to stimulate TLR signaling. Chloroquine is a non-specific TLR antagonist.
The stock solutions for the TLR9 antagonists and the TLR9 agonists were each prepared at 500 μM concentration. The stock solution for chloroquine diphosphate was prepared at 50 mM concentration.
The 96-W plate was then incubated for 3 days. Cell viability was examined using a CellTiter-Glo® assay.
(§1) A 40 μL aliquot of CellTiter-Glo® reagent was added directly into each well of the 96-W plate. The plate was then shaken on a Shaker (Labsystem Wellmix) at speed 5 for 10-20 min at room temperature. Next, about 100 μL of the mixed medium was transferred to a white, non-transparent, flat bottom 96-W plate for assaying. A Flexstation 3 luminometer was used for detecting and measuring the luminescent signals. Measurements were taken at room temperature.
CellTiter-Glo® reagents were thawed prior to use. Cells pre-plated onto a second 96-W plate and incubated at room temperature for 30 minutes were used for calibration purposes.
The luminescent measurements were subsequently processed and analyzed using CalcuSyn (CI) and Chalice Analyzer (synergy score). CalcuSyn performs the multiple drug dose-effect calculations using the Median Effect methods described by T-C Chou and P. Talalay in “Analysis of combined drug effects: a new look at a very old problem,” Trends Pharmacol. Sci. 4:450-454 (1983). In general, the resulting combination index (CI) obtained from the Chou-Talalay method defines quantitatively for additive effect (CI=1), synergism (CI<1), and antagonism (CI>1) in drug combinations. […] Biotechnol. 27(7):659-666 (2009).
(§2) Cell growth effects were determined by the CellTiter-Glo® luminescent cell viability assay (Promega). The combination index (C.I.), a drug interactivity measurement was calculated with Calcusyn. Synergy scores were calculated by the Chalice Analyzer (Horizon CombinatoRx). ApoDETECT Annexin V-FITC Kit was used to detect apoptotic cell population. LC3B antibody (Cell Signaling) was used for Western blot analysis to detect autophagic marker LC3B-II. HBL-1 cells were plated in MethoCult (StemCell Technologies) and number of colonies was counted 7 days after drug treatment to determine the effect on colony formation. TLR related gene expression was determined by using RT^2 Profiler PCR Array (Qiagen).

HBL1 cells = experiment: Combined drug treatment, CellTiter-Glo cell viability assay in HBL1 cell line
Experimental: as §1
(§3) The luminescent measurements were subsequently processed and analyzed using CalcuSyn (CI) and Chalice Analyzer (synergy score). […] In general, the resulting combination index (CI) obtained from the Chou-Talalay method defines quantitatively for additive effect (CI=1), synergism (CI<1), and antagonism (CI>1) in drug combinations. […] Biotechnol.
as §2

OCI-LY10 cells = experiment: Combined drug treatment, CellTiter-Glo cell viability assay in OCI-LY10 cell line; conditions: for synergy score for the chloroquine/ibrutinib combination: LY10 cells
Experimental: as §1, §3, §2

CCN(CC)CCCC(C)Nc1ccnc2cc(Cl)ccc12 (stereo not shown) [Chloroquine, chloroquine]
luminescent signal (CellTiter-Glo) (TMD8 cells; Control (no TLR9 agonist), ibrutinib 0 nM): 275515
luminescent signal (CellTiter-Glo) (TMD8 cells; Control (no TLR9 agonist), ibrutinib 0.0003 nM): 264724
luminescent signal (CellTiter-Glo) (TMD8 cells; Control (no TLR9 agonist), ibrutinib 0.0013 nM): 265058
luminescent signal (CellTiter-Glo) (TMD8 cells; Control (no TLR9 agonist), ibrutinib 0.0064 nM): 271348
luminescent signal (CellTiter-Glo) (TMD8 cells; Control (no TLR9 agonist), ibrutinib 0.032 nM): 276679
luminescent signal (CellTiter-Glo) (TMD8 cells; Control (no TLR9 agonist), ibrutinib 0.16 nM): 250469
luminescent signal (CellTiter-Glo) (TMD8 cells; Control (no TLR9 agonist), ibrutinib 0.8 nM): 177291
luminescent signal (CellTiter-Glo) (TMD8 cells; Control (no TLR9 agonist), ibrutinib 4 nM): 86168
luminescent signal (CellTiter-Glo) (TMD8 cells; Control (no TLR9 agonist), ibrutinib 20 nM): 78916
luminescent signal (CellTiter-Glo) (TMD8 cells; Control (no TLR9 agonist), ibrutinib 100 nM): 61700
luminescent signal (CellTiter-Glo) (TMD8 cells; TLR9 agonist ODN 2006 1 μM, ibrutinib 0 nM): 275829
luminescent signal (CellTiter-Glo) (TMD8 cells; TLR9 agonist ODN 2006 1 μM, ibrutinib 0.0003 nM): 258871
luminescent signal (CellTiter-Glo) (TMD8 cells; TLR9 agonist ODN 2006 1 μM, ibrutinib 0.0013 nM): 250534
luminescent signal (CellTiter-Glo) (TMD8 cells; TLR9 agonist ODN 2006 1 μM, ibrutinib 0.0064 nM): 249082
luminescent signal (CellTiter-Glo) (TMD8 cells; TLR9 agonist ODN 2006 1 μM, ibrutinib 0.032 nM): 239360
luminescent signal (CellTiter-Glo) (TMD8 cells; TLR9 agonist ODN 2006 1 μM, ibrutinib 0.16 nM): 247058
luminescent signal (CellTiter-Glo) (TMD8 cells; TLR9 agonist ODN 2006 1 μM, ibrutinib 0.8 nM): 138546
luminescent signal (CellTiter-Glo) (TMD8 cells; TLR9 agonist ODN 2006 1 μM, ibrutinib 4 nM): 79843
luminescent signal (CellTiter-Glo) (TMD8 cells; TLR9 agonist ODN 2006 1 μM, ibrutinib 20 nM): 67694
luminescent signal (CellTiter-Glo) (TMD8 cells; TLR9 agonist ODN 2006 1 μM, ibrutinib 100 nM): 62288
luminescent signal (CellTiter-Glo) (TMD8 cells; TLR9 agonist ODN 2216 1 μM, ibrutinib 0 nM): 203015
luminescent signal (CellTiter-Glo) (TMD8 cells; TLR9 agonist ODN 2216 1 μM, ibrutinib 0.0003 nM): 193567
luminescent signal (CellTiter-Glo) (TMD8 cells; TLR9 agonist ODN 2216 1 μM, ibrutinib 0.0013 nM): 229545
luminescent signal (CellTiter-Glo) (TMD8 cells; TLR9 agonist ODN 2216 1 μM, ibrutinib 0.0064 nM): 200219
luminescent signal (CellTiter-Glo) (TMD8 cells; TLR9 agonist ODN 2216 1 μM, ibrutinib 0.032 nM): 199458
luminescent signal (CellTiter-Glo) (TMD8 cells; TLR9 agonist ODN 2216 1 μM, ibrutinib 0.16 nM): 207276
luminescent signal (CellTiter-Glo) (TMD8 cells; TLR9 agonist ODN 2216 1 μM, ibrutinib 0.8 nM): 115898
luminescent signal (CellTiter-Glo) (TMD8 cells; TLR9 agonist ODN 2216 1 μM, ibrutinib 4 nM): 65959
luminescent signal (CellTiter-Glo) (TMD8 cells; TLR9 agonist ODN 2216 1 μM, ibrutinib 20 nM): 48838
luminescent signal (CellTiter-Glo) (TMD8 cells; TLR9 agonist ODN 2216 1 μM, ibrutinib 100 nM): 44662
luminescent signal (CellTiter-Glo) (TMD8 cells; TLR9 agonist ODN 2395 1 μM, ibrutinib 0 nM): 170080
luminescent signal (CellTiter-Glo) (TMD8 cells; TLR9 agonist ODN 2395 1 μM, ibrutinib 0.0003 nM): 168027
luminescent signal (CellTiter-Glo) (TMD8 cells; TLR9 agonist ODN 2395 1 μM, ibrutinib 0.0013 nM): 177301
luminescent signal (CellTiter-Glo) (TMD8 cells; TLR9 agonist ODN 2395 1 μM, ibrutinib 0.0064 nM): 170957
luminescent signal (CellTiter-Glo) (TMD8 cells; TLR9 agonist ODN 2395 1 μM, ibrutinib 0.032 nM): 167073
luminescent signal (CellTiter-Glo) (TMD8 cells; TLR9 agonist ODN 2395 1 μM, ibrutinib 0.16 nM): 156507
luminescent signal (CellTiter-Glo) (TMD8 cells; TLR9 agonist ODN 2395 1 μM, ibrutinib 0.8 nM): 100658
luminescent signal (CellTiter-Glo) (TMD8 cells; TLR9 agonist ODN 2395 1 μM, ibrutinib 4 nM): 69482
luminescent signal (CellTiter-Glo) (TMD8 cells; TLR9 agonist ODN 2395 1 μM, ibrutinib 20 nM): 59032
luminescent signal (CellTiter-Glo) (TMD8 cells; TLR9 agonist ODN 2395 1 μM, ibrutinib 100 nM): 55950
synergy with ibrutinib (in words) (TMD8 cells; TMD8 cells, whether or not TLR agonist was present): Synergy was observed
average CI value for the ibrutinib and chloroquine combination (TMD8 cells; TMD8 cells, with agonists): 0.11
synergy score for the ibrutinib and chloroquine combination (TMD8 cells; TMD8 cells, with agonists): 4.22
average CI value for the ibrutinib and chloroquine combination (TMD8 cells; TMD8 cells, without agonists): 0.40
synergy score for the ibrutinib and chloroquine combination (TMD8 cells; TMD8 cells, without agonists): 3.48
synergy with ibrutinib (in words) (HBL1 cells): Synergy was observed
CI value for the chloroquine/ibrutinib combination (HBL1 cells; with agonist ODN2216): 0.35
synergy score for the chloroquine/ibrutinib combination (HBL1 cells; with agonist ODN2216): 3.5
CI value for the chloroquine/ibrutinib combination (HBL1 cells; without agonist ODN2216): 0.56
synergy score for the chloroquine/ibrutinib combination (HBL1 cells; without agonist ODN2216): 3.03
CI value for the chloroquine/ibrutinib combination (OCI-LY10 cells; LY10, with agonist ODN2216): 0.59
CI value for the chloroquine/ibrutinib combination (OCI-LY10 cells; LY10, without agonist ODN2216): 0.50
synergy score for the chloroquine/ibrutinib combination (OCI-LY10 cells; with agonist ODN2216): 2.63
synergy score for the chloroquine/ibrutinib combination (OCI-LY10 cells; without agonist ODN2216): 2.44
synergy with ibrutinib (in words) (OCI-LY10 cells; OCI-LY10 cells): Synergy was observed
